From publication PMC11766569, “Novel Insights into the Nobilamide Family from a Deep-Sea Bacillus: Chemical Diversity, Biosynthesis and Antimicrobial Activity Towards Multidrug-Resistant Bacteria” (Marine Drugs, 2025) come the findings set out here.

Experiment [1] deals with L. monocytogenes 677. Put plainly: microbe, parasite or virus in culture. It counts as cell-based, Listeria monocytogenes. Here is the method: (§1) To evaluate the antimicrobial potential of all samples, the MICs for E. coli ATCC® 10536™, S. aureus ATCC® 6538™, S. aureus ATCC® 6538p™, methicillin-resistant S. aureus (MRSA), macrolide-resistant S. aureus ([…]), quinolone-resistant S. aureus (QRSA), vancomycin-resistant S. aureus (VRSA), S. epidermidis RP206 [7], S. xylosus MB 5209 [77] were determined by the liquid inhibition assay. Briefly, the bacterial strains were inoculated in 3 mL of liquid Mueller–Hinton broth (MHB) (HiMedia, Einhausen, Germany) in sterile bacteriological tubes and incubated in agitation at 37 °C until they reached the turbidity of 0.5 McFarland. Different from the remaining pathogens, L. monocytogenes MB 677 [79] was diluted in the Trypticasein soy broth (TSB) medium with an additional 0.6% yeast extract. Finally, serial dilutions of the inoculum were performed to obtain a final bacterial concentration of about 5 × 10^5 CFU/mL. Then, 4 µL of each sample was added into a 96-well microtiter plate containing 200 µL of MH medium. After being serially diluted using MH medium, 100 µL of bacterial suspension was inoculated into the broth (~5 × 10^4 CFU/well) and incubated statically for 18 h at 37 °C. DMSO was used as a control to determine the effect of solvent on cell growth. Vancomycin, erythromycin, and ampicillin were used as positive controls.

Experiment [2] deals with S. aureus vancomycin-resistant. Put plainly: Liquid inhibition assay (MIC). It is filed as cell-based, Staphylococcus aureus. The following applies: vancomycin-resistant S. aureus (VRSA), 96-well, MH medium, ~5 × 10^4 CFU/well, 18 h at 37 °C, absorbance at 600 nm. Here is the method: as §1
The test system of experiment [3] is S. aureus 6538p. The experiment can be described thus: microbe, parasite or virus in culture. It is filed as cell-based, Staphylococcus aureus. Here is the method: as §1
Experiment [4] has as its system S. aureus 6538. The experiment can be described thus: microbe, parasite or virus in culture. It is filed as cell-based, Staphylococcus aureus. The method, then: as §1
Experiment [5] has as its system S. aureus macrolide-resistant. Put plainly: microbe, parasite or virus in culture. It counts as cell-based, Staphylococcus aureus. The method, then: as §1
For experiment [6], the system named is S. aureus methicillin-resistant. The experiment can be described thus: microbe, parasite or virus in culture. It is filed as cell-based, Staphylococcus aureus. Here is the method:
as §1

The test system of experiment [7] is S. aureus quinolone-resistant. Put plainly: microbe, parasite or virus in culture. It counts as cell-based, Staphylococcus aureus. The method, then: as §1
Experiment [8] has as its system S. xilosus MB5209. The experiment can be described thus: microbe, parasite or virus in culture. It is filed as cell-based, S. xylosus. Here is the method: as §1
The subject of experiment [9] is S. epidermidis RP206. It counts as cell-based. The following applies: RP206, 18 h. The method, then:
as §1

Experiment [10] deals with E. coli ATCC 10536. Put plainly: Liquid inhibition assay (MIC). It counts as cell-based, Escherichia coli. The following applies: Gram-negative E. coli ATCC 10536. Here is the method: as §1

Converted amounts (≈) assume the structure as drawn. Where two headings read alike, the source gives them in different places. Marks after values point to notes of the source that are not given here. Bridge positions count the residues as written; N and C are the ends. Square brackets hold non-standard residues; d marks the D form. Peptide text beside a SMILES is read from it. d(aThr) = C[C@@H](O)[C@@H](N)C(=O)O; Dhb = C/C=C(\N)C(=O)O

For the compound `CC1(C)S[C@@H]2[C@H](NC(=O)[C@H](N)c3ccccc3)C(=O)N2[C@H]1C(=O)O` [ampicillin], the MIC is 1 ^c μg/mL in experiment [1] (L. monocytogenes 677, diluted in TSB with 0.6% yeast extract, 18 h at 37 °C, absorbance at 600 nm) and 1 µg/mL (≈ 2.86 µM) in experiment [1] (Listeria monocytogenes, 677, 18 h).

Regarding `CC[C@H]1OC(=O)[C@H](C)[C@@H](O[C@H]2C[C@@](C)(OC)[C@@H](O)[C@H](C)O2)[C@H](C)[C@@H](O[C@@H]2O[C@H](C)C[C@H](N(C)C)[C@H]2O)[C@](C)(O)C[C@@H](C)C(=O)[C@H](C)[C@@H](O)[C@]1(C)O` [erythromycin], the MIC in [2] (Staphylococcus aureus, read-out: MIC) is 1 µg/mL (≈ 1.36 µM); in [2], 1 ^b μg/mL.

As for `CN[C@H](CC(C)C)C(=O)N[C@H]1C(=O)N[C@@H](CC(N)=O)C(=O)N[C@H]2C(=O)N[C@H]3C(=O)N[C@H](C(=O)N[C@H](C(=O)O)c4cc(O)cc(O)c4-c4cc3ccc4O)[C@H](O)c3ccc(c(Cl)c3)Oc3cc2cc(c3O[C@@H]2O[C@H](CO)[C@@H](O)[C@H](O)[C@H]2O[C@H]2C[C@](C)(N)[C@H](O)[C@H](C)O2)Oc2ccc(cc2Cl)[C@H]1O` [Vancomycin], the MIC is 1 ^a μg/mL in experiment [3] (S. aureus 6538p, 96-well, MH medium, ~5 × 10^4 CFU/well, 18 h at 37 °C, absorbance at 600 nm, lowest concentration that completely inhibited growth); 1 µg/mL (≈ 0.69 µM) in [3] (Staphylococcus aureus, 6538P, 18 h); 0.5 ^a μg/mL in [4] (S. aureus 6538, 96-well, MH medium, ~5 × 10^4 CFU/well, 18 h at 37 °C, absorbance at 600 nm); 0.5 µg/mL (≈ 0.345 µM) in experiment [4] (Staphylococcus aureus, 6538, 18 h); 0.5 µg/mL (≈ 0.345 µM) in experiment [5] (Staphylococcus aureus, 18 h); 0.5 ^a μg/mL in experiment [5] (macrolide-resistant S. aureus, 96-well, MH medium, ~5 × 10^4 CFU/well, 18 h at 37 °C, absorbance at 600 nm). For the same compound, the MIC in [6] (Staphylococcus aureus, 18 h) was 0.5 µg/mL (≈ 0.345 µM); in experiment [6] (methicillin-resistant S. aureus, 96-well, MH medium, ~5 × 10^4 CFU/well, 18 h at 37 °C, absorbance at 600 nm), 0.5 ^a μg/mL; in [7] (Staphylococcus aureus, 18 h), 0.5 µg/mL (≈ 0.345 µM); in experiment [7] (quinolone-resistant S. aureus, 96-well, MH medium, ~5 × 10^4 CFU/well, 18 h at 37 °C, absorbance at 600 nm), 0.5 ^a μg/mL; in [8] (S. xilosus MB5209, 96-well, MH medium, ~5 × 10^4 CFU/well, 18 h at 37 °C, absorbance at 600 nm), 0.5 ^a μg/mL; in experiment [8] (Staphylococcus xylosus, MB5209, 18 h), 0.5 µg/mL (≈ 0.345 µM).

Take `C/C=C1\NC(=O)[C@H](C)NC(=O)[C@H](C(C)C)NC(=O)[C@H](NC(=O)[C@H](Cc2ccccc2)NC(=O)[C@@H](CC(C)C)NC(=O)[C@@H](Cc2ccccc2)NC(C)=O)[C@@H](C)OC1=O` [TL-119] (Ac-[dF][dL]F[d(aThr)]VA[Dhb]; ester 4-C): the MIC in [3] (6538p, 18 h) was 0.24 µg/mL (≈ 0.299 µM); in [4] (6538, 18 h), 0.24 µg/mL (≈ 0.299 µM); in experiment [5] (macrolide-resistant, 18 h), 1.9 µg/mL (≈ 2.36 µM); in experiment [6] (methicillin-resistant, 18 h), 3.9 µg/mL (≈ 4.85 µM); in experiment [7] (quinolone-resistant, 18 h), 0.9 µg/mL (≈ 1.12 µM); in experiment [9], 7.8 µg/mL (≈ 9.7 µM). Besides, the MIC was determined as 7.8 µg/mL (≈ 9.7 µM) in [8] (18 h) and 0.24 µg/mL (≈ 0.299 µM) in experiment [1] (677, 18 h). Further, the “antibacterial activity (in words)” value in [10] was “lack of antibacterial activity”.
